Test results reported in patent US10899741B2, “3,4-bipyridyl pyrazole derivative, and preparation method therefor and medical application thereof” (Jiangsu Hengrui Medicine Co., Ltd., priority 2016, dated 2021).

Key:
[1] = Pharmacokinetics assay in rats after intragastrical administration; assay type: in vivo; details: both sexes, Sprague-Dawley, rat, plasma, po, SD rats; for Vd/F / AUC / CL/F / half-life / MRT: 2.0 mg/kg; for Vd/F: read-out: Apparent distribution volume Vz/F; for AUC: read-out: Area under curve AUC; for CL/F: read-out: Clearance CLz/F; for half-life: read-out: Half-life T1/2 (converted); for MRT: read-out: Residence time MRT
Description: Rats were used as test animals. The drug concentration in plasma at different time points was determined by LC/MS/MS method after intragastrical administration of the compounds of Examples 1 and 2 to rats. The pharmacokinetic behavior of the compounds of the present invention was studied and evaluated in rats.
Eight healthy adult Sprague-Dawley (SD) rats (half male and half female) were purchased from SINO-BRITISH SIPPR/BK LAB. ANIMAL LTD., CO, with Certificate No.: SCXK (Shanghai) 2008-0016, and equally divided into 2 groups (4 rats per group).
A certain amount of the test drug was weighed, and added with 5% by volume of DMSO, 5% by volume of Tween 80, and 90% by volume of physiological saline to prepare a 0.2 mg/mL colorless, clear and transparent solution.
After an overnight fast, SD rats were administered intragastrically the test drugs at an administration dosage of 2.0 mg/kg and an administration volume of 10.0 mL/kg.
The rats were intragastrically administered the compounds of Examples 1 and 2. 0.2 mL of blood was taken from the orbital sinus before administration and at 0.5, 1.0, 2.0, 4.0, 6.0, 8.0, 11.0 and 24.0 hours after administration. The samples were stored in heparinized tubes, and centrifuged for 10 minutes at 4° C. at 3,500 rpm to separate the blood plasma. The plasma samples were stored at −20° C. The rats were fed 2 hours after administration.
The content of the test compounds in the plasma of rats after intragastrical administration of the test drugs at different concentrations was determined: 25 μL of rat plasma at each time after administration was taken, added with 30 μL (100 ng/mL) of the internal standard solution of camptothecin and 225 μL of acetonitrile, vortex-mixed for 5 minutes, and centrifuged for 10 minutes (3600 rpm). 5.0 μL of the supernatant was taken from the plasma samples for LC/MS/MS analysis.

TGFβRI kinase ALK5 = TGFβRI kinase ALK5 (Homo sapiens (Human), UniProt P36897); assay: Inhibition of TGFβRI kinase ALK5 activity (ADP-Glo kit); assay type: biochemical; details: ATP 50 μM, 27° C. 2.5 hours
Chain of TGFβRI kinase ALK5 (P36897 34-503): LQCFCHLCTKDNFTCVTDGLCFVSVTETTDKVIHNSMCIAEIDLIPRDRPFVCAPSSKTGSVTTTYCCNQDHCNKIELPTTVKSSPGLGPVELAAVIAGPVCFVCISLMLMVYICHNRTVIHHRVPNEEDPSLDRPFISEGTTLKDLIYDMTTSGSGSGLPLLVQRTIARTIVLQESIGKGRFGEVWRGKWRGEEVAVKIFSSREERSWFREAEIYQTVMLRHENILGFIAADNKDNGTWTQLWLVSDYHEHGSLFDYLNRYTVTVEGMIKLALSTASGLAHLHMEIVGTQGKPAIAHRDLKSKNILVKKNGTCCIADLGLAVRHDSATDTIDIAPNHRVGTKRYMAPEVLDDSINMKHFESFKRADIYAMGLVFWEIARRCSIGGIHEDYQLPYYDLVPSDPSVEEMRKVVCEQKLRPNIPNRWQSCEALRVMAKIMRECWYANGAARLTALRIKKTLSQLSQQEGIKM
Description: The inhibition effect of TGFβRI kinase activity in vitro was determined by the following method.
The inhibition effect of the compounds of the present invention on TGFβRI kinase ALK5 activity was determined by the following experimental method:
TGFβRI kinase assay kit (V4093, Promega) was used to assay enzyme activity. 2 μl of enzyme solution (the final concentration of enzyme in the reaction system was 2 ng/μL) formulated with reaction buffer (40 mM Tris pH 7.5, 20 mM MgCl2, 0.1 mg/ml BSA), 1 μl of a 3-fold gradient dilution of the compounds dissolved in 5% DMSO, and 2 μl of a mixed solution of ATP and TGFβRI substrate peptide (the final concentration of ATP was 50 μM, and the final concentration of substrate was 0.2 μg/μL) were added successively to a 384-well plate (4514, Corning). After reaction at 27° C. for 2.5 hours, 5 μl of ADP-Glo solution in the kit was added to each well, then the plate was placed at 27° C. for 40 minutes. 10 μl of kinase assay reagent was then added to each well, then the plate was placed at 27° C. for 30 minutes. The chemiluminescence signal values were measured with a Victor 3 (PerkinElmer) multi-function microplate reader. The IC50 values of the compounds for enzyme inhibition were calculated using Graphpad prism software based on each concentration of the compound and the corresponding signal value thereof.

recombinant human VEGFR2 = recombinant human VEGFR2 (Homo sapiens (Human), UniProt P35968); assay: Inhibition of VEGFR2 kinase activity (Z'-LYTE kit); assay type: biochemical; details: ATP 50 μM, 25° C. 2 hours
Chain of recombinant human VEGFR2 (P35968 20-1356): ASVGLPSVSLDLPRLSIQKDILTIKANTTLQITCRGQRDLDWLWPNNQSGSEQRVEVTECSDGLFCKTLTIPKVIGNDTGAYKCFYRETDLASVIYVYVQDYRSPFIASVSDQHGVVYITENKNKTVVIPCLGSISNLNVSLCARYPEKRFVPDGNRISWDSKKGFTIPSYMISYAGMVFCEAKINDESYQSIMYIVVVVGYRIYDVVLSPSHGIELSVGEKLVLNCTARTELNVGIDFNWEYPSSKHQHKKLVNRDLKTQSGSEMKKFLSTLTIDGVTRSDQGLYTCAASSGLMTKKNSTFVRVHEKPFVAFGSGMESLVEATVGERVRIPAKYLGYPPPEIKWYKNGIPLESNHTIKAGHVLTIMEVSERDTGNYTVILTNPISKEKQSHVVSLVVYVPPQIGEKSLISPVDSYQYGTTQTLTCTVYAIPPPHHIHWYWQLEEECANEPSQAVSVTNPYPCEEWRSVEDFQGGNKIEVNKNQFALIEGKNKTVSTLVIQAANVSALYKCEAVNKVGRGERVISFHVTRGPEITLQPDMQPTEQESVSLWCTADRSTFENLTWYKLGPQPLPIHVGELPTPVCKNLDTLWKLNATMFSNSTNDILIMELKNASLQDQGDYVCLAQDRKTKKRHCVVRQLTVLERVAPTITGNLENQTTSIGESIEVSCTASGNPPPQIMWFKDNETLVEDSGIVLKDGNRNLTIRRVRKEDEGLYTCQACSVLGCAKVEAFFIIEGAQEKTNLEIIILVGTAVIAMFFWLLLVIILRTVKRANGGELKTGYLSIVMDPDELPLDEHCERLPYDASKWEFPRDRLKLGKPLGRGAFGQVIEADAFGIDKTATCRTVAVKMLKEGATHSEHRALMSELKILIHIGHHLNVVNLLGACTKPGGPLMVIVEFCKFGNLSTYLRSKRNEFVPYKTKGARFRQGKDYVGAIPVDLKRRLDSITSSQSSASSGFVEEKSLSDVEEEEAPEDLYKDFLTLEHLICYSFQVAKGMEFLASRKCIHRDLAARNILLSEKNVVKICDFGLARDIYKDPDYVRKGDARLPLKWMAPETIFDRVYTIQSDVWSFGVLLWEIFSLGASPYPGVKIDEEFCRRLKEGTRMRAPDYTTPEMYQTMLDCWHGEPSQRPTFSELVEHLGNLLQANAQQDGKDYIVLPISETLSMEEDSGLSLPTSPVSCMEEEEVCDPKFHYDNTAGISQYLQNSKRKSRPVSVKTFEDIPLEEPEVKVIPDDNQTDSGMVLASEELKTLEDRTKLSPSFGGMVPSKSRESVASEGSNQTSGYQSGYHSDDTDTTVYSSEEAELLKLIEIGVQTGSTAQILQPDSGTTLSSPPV
Description: The inhibition effect of VEGFR2 kinase activity in vitro was determined by the following method.
The inhibition effect of the compounds of the present invention on VEGFR2 kinase activity was determined by the following experimental method:
Z'-LYTEC® Kinase Assay Kit—Tyrosine 1 Peptide (PV3190, Invitrogen) was used to assay enzyme activity. 5 μl of recombinant human VEGFR2 enzyme (PV3660, Invitrogen) and VEGFR2 substrate polypeptide (in the reaction system, the final concentration of enzyme was 0.14 ng/μL, and the final concentration of substrate was 2 μM) formulated with reaction buffer (50 mM HEPES pH7.5, 10 mM MgCl2, 1 mM EGTA, 0.05% BRIJ-35), 2.5 μl of a 2-fold gradient dilution of the compounds dissolved in 5% DMSO, and 2.5 μL of ATP solution (the final concentration of ATP was 50 μM) were added successively to a 384-well plate (4513, Corning). After reaction at 25° C. for 2 hours, 5 μL of detection reagent was added to each well. After the plate was placed at 25° C. for 1 hour, the fluorescence signal values at emission wavelengths of 445 nm and 520 nm were measured with a NOVOstar (BMG) multi-function microplate reader. The IC50 values of the compounds for enzyme inhibition were calculated using Graphpad prism software based on each concentration of the compound and the corresponding signal value thereof.

[2] = test system: Smad signaling pathway of TGFβRI; assay: Inhibition of Smad signaling pathway of TGFβRI (3TP-lux luciferase reporter in HepG2 cells); assay type: cell-based; details: HepG2, 3TP-lux plasmid, 18 hours; for IC50: Homo sapiens
Description: The inhibition effect of the compounds of the present invention on Smad signaling pathway of TGFβRI was determined by the following in vitro test.
The inhibition effect of the compounds of the present invention on Smad signaling pathway of TGFβRI was determined by the following experimental method:
On a 96-well plate, 100 μL of HepG2 cell (TCHu 72, Cell Bank of Typical Culture Collection Committee of Chinese Academy of Sciences) was seeded on an EMEM medium containing 10% FBS (42360-099, Gibco) in each well. The seeding density is 2.5×10^4 cells/well. The cells were incubated overnight at 37° C., in 5% CO2. Each well was replaced with fresh EMEM medium containing 10% FBS. 0.1 μg of 3TP-lux plasmid (11767, Biovector Science Lab, Inc.) was transfected in each well. The cells were further incubated for 24 hours at 37° C., in 5% CO2. Each well was replaced with 90 μL of EMEM medium containing 0.5% FBS, then the cells were starved for 6 hours. The compounds were formulated as a 20 mM stock solution, which was diluted in gradient to a 400× concentration with 100% DMSO, and further 40-fold diluted with EMEM containing 0.5% FBS. The cell culture plate was taken out, then 10 μl of diluted compound or control (0.25% DMSO) was added to each well respectively. The plate was shaken gently, then incubated for 18 hours in an incubator at 37° C., in 5% CO2. Finally, 100 μl of detection reagent ONE-Glo™ Luciferase Assay (E6110, Promega) was added to each well, and the plate was placed in dark at room temperature for 10 minutes. The chemiluminescence signal values were measured with a Victor 3.0 (PerkinElmer). The IC50 values of the compounds were calculated using Graphpad Prism software based on each concentration of the compound and the corresponding signal value thereof.

SMILES | Vd/F [1] [L/kg] | AUC [1] [ng·h/mL] | CL/F [1] [mL/min/kg] | half-life [1] [h] | MRT [1] [h] | IC50 (TGFβRI kinase ALK5) [nM] | IC50 (recombinant human VEGFR2) [nM] | Maximum inhibition rate (%) [2] [%] | IC50 [2] [nM] | Cmax ([1]; 2 mg/kg, heading: Plasma concentration Cmax) [ng/mL]
Cc1cccc(-c2nn(C3CC3)cc2-c2ccnc(-c3ccc(S(C)(=O)=O)cc3)c2)n1 [Example 2, 4-(1-Cyclopropyl-3-(6-methylpyridin-2-yl)-1H-pyrazol-4-yl)-2-(4-(methylsulfonyl)phenyl)pyridine] | 0.872 ± 0.536 | 8060 ± 5290 | 5.33 ± 2.65 | 1.99 ± 0.95 | 3.06 ± 0.87 | 270 | 4200 | 100 | 174 | –
Cc1cccc(-c2nn(C3CCC3)cc2-c2ccnc(-c3ccc(S(C)(=O)=O)cc3)c2)n1 [Example 1, 4-(1-Cyclobutyl-3-(6-methylpyridin-2-yl)-1H-pyrazol-4-yl)-2-(4-(methylsulfonyl)phenyl)pyridine] | 1.2 ± 0.437 | 3270 ± 1470 | 11.9 ± 5.2 | 1.23 ± 0.33 | 1.72 ± 0.21 | 208 | 2500 | 101 | 77 | 1830 ± 941
